Data: article PMC5232348, “Molecular and Functional Characterization of Three Odorant-Binding Protein from Periplaneta americana” (PLoS ONE, 2017)
Like-named read-outs stand apart in the source and are kept apart here.

Legend:
PameOBP3 = PameOBP3 (Periplaneta americana, UniProt B6E9U9); test: Competitive fluorescence binding assay (1-NPN displacement), recombinant PameOBP3
From the text: (§1) The PameOBPs were expressed by using Escherichia coli expression system. To generate properly folded protein, the signal peptide predicted by SignalIP 4.1 [18] was removed. The two PameOBPs were amplified by gene special primers (S1 Table) with the cDNA as the template. The purified PCR products were ligated into expression vector pGEX-4T-1 using In-Fusion® HD Cloning Kit (Clontech, Mountain View, CA) according to the manufacturer’s instructions. The recombinant plasmid was transformed into E. coli BL21 (DE3) cells, and then expression and purification was performed according to a previously reported protocol. Recombinant proteins in the supernatant were purified by an affinity chromatography column GSTrap FF (GE Healthcare, Piscataway, NJ, USA). The GST tags were cleaved from recombinant proteins using 400 μL of thrombin (1U/μL) while loaded on GSTrap FF column at 25°C for 10 h and allowed 12 h. After that, the recombinant proteins were eluted with PBS buffer. Finally, the eluted proteins were desalted using HiTrap Desalting (GE Healthcare), lyophilized, and stored at −80°C until use.
(§2) Emission fluorescence spectra were measured on a Hitachi F-4500 fluorescence spectrophotometer following our previous studies. Firstly, dissociation constants of the PameOBPs for N-phenyl-1-naphtylamine (1-NPN) were calculated to determine the suitability of 1-NPN as a fluorescence reporter. […] The binding data were analyzed following our previous studies.

PameOBP2 = PameOBP2 (Periplaneta americana, UniProt B6E9U8); test: Competitive fluorescence binding assay (1-NPN displacement), recombinant PameOBP2; settings: 2 μM 1-NPN as fluorescent reporter, competitor 0.25–2.5 μM or 2–40 μM
Sequence of PameOBP2 (B6E9U8 entry or part of it): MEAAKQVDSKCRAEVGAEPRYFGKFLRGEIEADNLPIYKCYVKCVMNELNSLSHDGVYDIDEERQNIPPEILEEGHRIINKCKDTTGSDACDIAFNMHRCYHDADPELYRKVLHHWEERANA
From the text: as §1, §2

PameOBP1 = PameOBP1 (Periplaneta americana, UniProt B6E9U7); test: Competitive fluorescence binding assay (1-NPN displacement), recombinant PameOBP1; settings: 2 μM 1-NPN as fluorescent reporter, competitor 0.25–2.5 μM or 2–40 μM
Sequence of PameOBP1 (B6E9U7 entry or part of it): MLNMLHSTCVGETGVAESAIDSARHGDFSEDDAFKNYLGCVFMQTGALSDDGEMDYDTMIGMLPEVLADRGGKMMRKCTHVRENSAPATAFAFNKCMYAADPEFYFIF
From the text: as §1, §2

[1] = 2 μM 1-NPN as fluorescent reporter, competitor 0.25–2.5 μM or 2–40 μM, read-out: PameOBP3 Ki

Sequence of PameOBP3 (B6E9U9 entry or part of it): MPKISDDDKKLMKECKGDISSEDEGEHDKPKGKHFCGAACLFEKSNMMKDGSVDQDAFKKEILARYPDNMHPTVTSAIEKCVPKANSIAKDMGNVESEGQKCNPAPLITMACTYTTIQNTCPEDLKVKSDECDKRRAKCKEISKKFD

| Compound | Ki (PameOBP3; [1]) [µM] | Ki (PameOBP2; read-out: PameOBP2 Ki) [µM] | Ki (PameOBP1; read-out: PameOBP1 Ki) [µM] | Ki (PameOBP3) [µM] | Ki (PameOBP2; PameOBP2 Ki) [µM] | Ki (PameOBP1; PameOBP1 Ki) [µM] | also measured |
| --- | --- | --- | --- | --- | --- | --- | --- |
| CC/C=C\CCOC(=O)CCC [cis-3-hexenyl butyrate] | > 40 | > 40 | > 40 | – | – | – | – |
| CC(C)c1ccccc1 [cumene] | – | – | – | > 40 | > 40 | > 40 | – |
| CCCCCCCCCC=O [decanal] | > 40 | > 40 | > 40 | – | – | – | – |
| CCCCCCCCCCCC [dodecane] | > 40 | > 40 | > 40 | – | – | – | – |
| CCOC(=O)c1ccccc1 [ethyl benzoate] | – | – | – | > 40 | > 40 | > 40 | – |
| CCCC(=O)OCC [ethyl butyrate] | > 40 | > 40 | > 40 | – | – | – | – |
| CCOC(=O)CC [ethyl propionate] | > 40 | > 40 | > 40 | – | – | – | – |
| CCc1ccccc1 [ethylbenzene] | – | – | – | > 40 | > 40 | > 40 | – |
| CC12CCC(CC1)C(C)(C)O2 [eucalyptol] | > 40 | > 40 | > 40 | – | – | – | – |
| CC(C)=CCC/C(C)=C/CO [geraniol] | – | – | – | > 40 | > 40 | > 40 | – |
| CCCCCCCCCCCCCCCCC [heptadecane] | > 40 | > 40 | > 40 | – | – | – | – |
| CCCCCCCOC(C)=O [heptyl acetate] | > 40 | > 40 | > 40 | – | – | – | – |
| CCCCCC=O [hexanal] | – | – | – | > 40 | > 40 | > 40 | – |
| CCCCCCOC(=O)CCC [hexyl butyrate] | > 40 | > 40 | > 40 | – | – | – | – |
| c1ccc2[nH]ccc2c1 [indole] | – | – | – | > 40 | > 40 | > 40 | – |
| CC(=O)OCCC(C)C [isoamyl acetate] | > 40 | > 40 | > 40 | – | – | – | – |

| Compound | Ki (PameOBP3; [1]) [µM] | Ki (PameOBP2; read-out: PameOBP2 Ki) [µM] | Ki (PameOBP1; read-out: PameOBP1 Ki) [µM] | Ki (PameOBP3) [µM] | Ki (PameOBP2; PameOBP2 Ki) [µM] | Ki (PameOBP1; PameOBP1 Ki) [µM] | also measured |
| --- | --- | --- | --- | --- | --- | --- | --- |
| C=CC(C)(O)CCC=C(C)C (stereo not drawn) [linalool] | – | – | – | > 40 | > 40 | > 40 | – |
| COC(=O)c1ccccc1O [methyl salicylate] | – | – | – | > 40 | > 40 | > 40 | – |
| c1ccc2ccccc2c1 [naphthalene] | – | – | – | > 40 | > 40 | > 40 | – |
| CCCCCCCCCOC(C)=O [nonyl acetate] | > 40 | > 40 | > 40 | – | – | – | – |
| CCCCCCCCCCCCCCCCCC [octadecane] | > 40 | > 40 | > 40 | – | – | – | – |
| CCCCCCCCOC(C)=O [octyl acetate] | > 40 | > 40 | > 40 | – | – | – | – |
| CCCCCOC(C)=O [pentyl acetate] | > 40 | > 40 | > 40 | – | – | – | – |
| OCCc1ccccc1 [phenethyl alcohol] | > 40 | > 40 | > 40 | – | – | – | – |
| O=CCc1ccccc1 [phenylacetaldehyde] | – | – | – | > 40 | > 40 | > 40 | – |
| CCC/C=C/C=O [trans-2-hexenal] | – | – | – | > 40 | > 40 | > 40 | – |
| CCC/C=C/COC(C)=O [trans-2-hexenyl acetate] | > 40 | > 40 | > 40 | – | – | – | – |
| CCC/C=C/COC(=O)CCC [trans-2-hexenyl butyrate] | > 40 | > 40 | > 40 | – | – | – | – |
| CCCCCCCCCCCCC [tridecane] | > 40 | > 40 | > 40 | – | – | – | – |
| CCCCCCCCCCC=O [undecanal] | > 40 | > 40 | > 40 | – | – | – | – |
| CCCCCCCCCCC [undecane] | > 40 | > 40 | > 40 | – | – | – | – |
| Farnesene | – | 0.52 ± 0.03 | 1.04 ± 0.1 | – | – | – | Ki (PameOBP2; listed as farnesene, read-out: PameOBP2 Ki): < 2 µM; IC50 (PameOBP2; read-out: PameOBP2 IC50): 0.64 ± 0.08 µM; Ki (PameOBP1; listed as farnesene, read-out: PameOBP1 Ki): < 2 µM; IC50 (PameOBP1; read-out: PameOBP1 IC50): 1.14 ± 0.12 µM |
